The assay has as its system gut tube of E8.75 mouse embryos. The assay can be described thus: Injection of compound induced endoderm into gut tube of E8.75 mouse embryos, ex vivo embryo culture. Type of assay: in vivo. To be noted: for incorporation of induced endodermal cells into gut tube (in words): FoxA2, Cldn6 and YFP staining; for embryos in which induced cells integrated into the gut: cells treated 6 days, injected into E8.75 embryos, 24-30 hrs ex vivo culture. As to the method:
Mouse E8.5 ICR embryos were dissected in Hanks Balanced Salt Solution and cultured in the DMEM/F12 (Invitrogen) media supplemented with 50% rat serum (Valley Biomedical), penicillin, streptomycin, glutamine at 37° C. for 20-24 hrs. The YFP mouse ES cells were cultured in the presence of hit compounds for 6 days to induce endoderm formation and then cells were dissociated with trypsin and approx. 100 000 cells were injected into gut tube of E8.75 embryos. Following injections, embryos were transferred to rotating bottle culture unit and were then cultured in media (1.5-2 ml per embryo) as above under humidified conditions at 40% O2, 5% CO2, 55% N2, and 37° C. After 30 hrs culture, embryos were fixed in 4% paraformaldehyde in PBS, embedded in tissue-tek and cryosections were stained with antibodies against Cld6, FoxA2 an YFP.
For chemically derived endoderm to be useful, it is important to determine its developmental potential, beyond the expression of endodermal markers. The ultimate goal is to direct the cells to form functional beta cells. To begin to address this possibility and functional potential of derived populations, mouse ES cells ubiquitously expressing enhanced yellow fluorescent protein (EYFP) (Hadjantonakis et al., 2002) were induced to form endoderm with IDE1, IDE2, or DMSO (control). At day 6 of treatment, the inventors dissociated and injected the cells into the gut tube (a derivative of endoderm) of live E8.75 embryos. The lumen of the gut tube can be accessed prior to the completion of embryonic turning and gut tube closure and therefore provides a developmental window for functional assessment of ES-derived endoderm cells. Chemically derived endoderm was injected into the primitive gut tube at the anterior and posterior intestinal portals. At this time the gut tube is still open and anterior intestinal portal is accessible (FIG. 6A). The embryos were cultured ex vivo for 24-30 hrs during which time the lateral walls of the embryonic gut fold ventrally and the gut tube closes, around E9.5. […] Cells induced by IDE1 treatment integrated into the gut, in 8 out of 35 cases, and in 7 out of 29 embryos for IDE2. Conversely, DMSO (control) treated cells never integrate into the developing gut tube (0/10 and 0/11, respectively) and instead remain in the lumen (FIG. 6B).

On to `O=C(O)CCCCCC(=O)N/N=C/c1ccccc1C(=O)O` [IDE1], for which the “incorporation of induced endodermal cells into gut tube (in words)” value is “incorporate into gut tube and show expression of gut tube markers”; the “embryos in which induced cells integrated into the gut” value is 8 out of 35.
As for `O=C(O)CCCCCC(=O)NN=C1CCCC1` [IDE2], the “incorporation of induced endodermal cells into gut tube (in words)” value is “incorporate into gut tube and show expression of gut tube markers”; the “embryos in which induced cells integrated into the gut” value was 7 out of 29.

The record behind these values is patent US8927280B2, “Compositions and methods for promoting the generation of definitive endoderm” (President and Fellows of Harvard College, priority 2009, dated 2015).
